In patent publication US6747021B2, “Cryptophycin compound” (Eli Lilly and Company, priority 2000, dated 2004):
Like-named read-outs stand apart in the source and are kept apart here.

How the values were obtained:
[1] = system: COLON ADENOCARCINOMA 51/A; test: Early stage murine colon adenocarcinoma 51/A subcutaneous tumor assay; assay type: in vivo; conditions: IV 28 mg/kg/inj days 3,5,7,9,11; total dose 140 mg/kg; CDF female mice
Text: (§1) Inhibition of tumors transplanted into mice is an accepted procedure for studying the efficacy of antitumor agents (Corbett, et al., In vivo Methods for Screening and Preclinical Testing; Use of rodent solid tumors for drug discovery., In: Anticancer Drug Development Guide: Preclinical Screening, Clinical Trials, and Approval, B. Teicher (ed), Humana Press Inc., Totowa, N.J., Chapter 5, pages 75-99 (1997); (Corbett, et al., Int. J. Pharmacog., 33, Supplement, 102-122 (1995)). Murine tumors or human xenographs were implanted essentially as described by Corbett in In vivo Methods for Screening and Preclinical Testing; Use of rodent solid tumors for drug discovery. Briefly, the murine tumor or human xenograph was implanted subcutaneously using either 12-gauge trocar implants or counted number of cells. The location for the trocar insertion is midway between the axillary and inguinal region along the side of the mouse. The trocar is slipped approximately ¾ of an inch subcutaneously up toward the axilla before discharging the tumor fragment, and pinching the skin as the trocar is removed. Alternatively, human tumor cells prepared from a […] of donor tumors (5×10^6 cells) were implanted subcutaneously in a hind-leg of a male or female nude mouse (Charles River). Either a test compound in vehicle or vehicle alone was administered by intravenous bolus injection (iv), intraperitoneal injection (ip), or oral gavage (po). Each treatment group, as well as a group of untreated control animals, consisted of five animals per group in each experiment. Subcutaneous tumor response was monitored by tumor volume measurement performed twice each week over the course of the experiment (60-120 days). Body weights were taken as a general measure of toxicity. The subcutaneous tumor data were analyzed by determining the median tumor weight for each treatment group over the course of the experiment and calculating the tumor growth delay as the difference in days for the treatment versus the control tumors to reach a volume of either 500 or 1000 mm^3.
(§2) Cryptophycin-309 (309) was tested against a variety of murine and human tumors substantially as described supra. Cryptophycin-55 glycinate (55-GLY), Taxol, and Adriamycin (Adria) were also included in certain tests for purposes of comparison. Cryptophycin 55 glycinate is known in the art (WO 98/08505, Example 9) and has the following structure: [drawing 9]
(§3) Tumor Weight(mg)=(a×b^2)/2 where a=tumor length (mm) and b=tumor width (mm).
(§4) Tumor Growth Delay=T−C where T is the median time (days) required for the treatment group tumors to reach a predetermined size, and C is the median time (days) for the control group tumors to reach the same size. Tumor-free survivors are excluded from this calculation, and are tabulated separately (Tumor Free).
(§5) Log Kill=Tumor Growth Delay/(3.32)(Td)
(§6) where Tumor Growth Delay is as previously defined and Td is tumor volume doubling time (days), estimated from the best fit straight line from a log-linear growth plot of the control group of tumors in exponential growth (100-800 mg range)
(§7) %T/C mass—The treatment and control groups are measured when the control group tumors reach approximately 700 to 1200 mg in size (median group). The median tumor weight of each group is determined (including zeros). The T/C value in percent is an indication of antitumor effectiveness. A T/C≦42% is considered significant antitumor activity. A T/C<10% is considered to indicate highly significant antitumor activity.
(§8) Body Weight Loss Nadir—A body weight loss nadir (mean of group) of greater than 20% or drug deaths greater than 20% are considered to indicate an excessively toxic dosage in single course trials.
(§9) Activity Rating—the Activity Rating is derived from the Log Kill according to the following table: […]

[2] = system: HUMAN COLON ADENOCARCINOMA 15; assay type: in vivo; conditions: Balb/C SCID female mice
Text: as §1, §2, §3, §4, §5, §6, §7, §8, §9

[3] = system: HUMAN COLON ADEN[…]-116; test: Early stage human colon adenocarcinoma HCT-116 xenograft assay; assay type: in vivo; conditions: Balb/C SCID female mice
Text: as §1, §2, §3, §4, §5, §6, §7, §8, §9

[4] = system: MAMMARY ADENOCARCINOMA 16/C; assay type: in vivo, murine; conditions: C3H/HeN female mice
Text: as §1, §2, §3, §4, §5, §6, §7, §8, §9

[5] = system: PANCREATIC DUCTAL ADENOCARCINOMA #02; assay type: in vivo, murine; conditions: BDF1 female mice
Text: as §1, §2, §3, §4, §5, §6, §7, §8, §9

[6] = Toxicity relative to other cryptophycins (general statement); conditions: compared with other cryptophycins; no test described
[7] = IV 16.5 mg/kg/inj days 3,5,7,9,11, total dose 82.5 mg/kg
[8] = IV 25 mg/kg/inj days 3,5,7,9,11, total dose 125 mg/kg
[9] = IV 38 mg/kg/inj days 3,5,7,9,11, total dose 190 mg/kg
[10] = IV 20 mg/kg/inj days 3,5,7,9,11, total dose 100 mg/kg
[11] = IV 30 mg/kg/inj days 3,5,7,9,11, total dose 150 mg/kg
[12] = IV 20 mg/kg/inj days 1,3,5,7,9, total dose 100 mg/kg, experiment #
[13] = IV 30 mg/kg/inj days 1,3,5,7,9, total dose 150 mg/kg, experiment #
[14] = IV 33 mg/kg/inj days 1,3,5,7,9, total dose 165 mg/kg, experiment ##

COc1ccc(C[C@H]2NC(=O)/C=C/C[C@@H]([C@H](C)[C@@H](OC(=O)CN)[C@@H](Cl)c3ccccc3)OC(=O)[C@H](CC(C)(C)C)OC(=O)[C@H](C)CNC2=O)cc1Cl [Cryptophycin 309, Cryptophycin-309]
% T/C MASS [1]: 0%
ACTIVITY RATING [1]: +++ (2.0-2.8)
DRUG DEATHS [1]: 0/6
GROWTH DELAY [1]: 20.1 days
LOG KILL [1]: 2.4
MEDIAN TUMOR WEIGHT [1]: 0 mg
% T/C MASS [2, 7]: 11%
ACTIVITY RATING [2, 7]: +++ (2.0-2.8)
DRUG DEATHS [2, 7]: 0/5
GROWTH DELAY [2, 7]: 24.5 days
LOG KILL [2, 7]: 2.5
MEDIAN TUMOR WEIGHT [2, 7]: 126 mg
% T/C MASS [2, 8]: 0%
ACTIVITY RATING [2, 8]: ++++ (>2.8)
DRUG DEATHS [2, 8]: 0/5
GROWTH DELAY [2, 8]: 31.5 days
LOG KILL [2, 8]: 3.2
MEDIAN TUMOR WEIGHT [2, 8]: 0 mg
% T/C MASS [2, 9]: 0%
ACTIVITY RATING [2, 9]: ++++ (>2.8)
DRUG DEATHS [2, 9]: 0/5
GROWTH DELAY [2, 9]: 32.5 days
LOG KILL [2, 9]: 3.3
MEDIAN TUMOR WEIGHT [2, 9]: 0 mg
% T/C MASS [3, 7]: 0%
ACTIVITY RATING [3, 7]: +++ (2.0-2.8)
DRUG DEATHS [3, 7]: 0/5
GROWTH DELAY [3, 7]: 22 days
LOG KILL [3, 7]: 2.65
MEDIAN TUMOR WEIGHT [3, 7]: 0 mg
% T/C MASS [3, 8]: 0%
ACTIVITY RATING [3, 8]: ++++ (>2.8)
DRUG DEATHS [3, 8]: 0/5
GROWTH DELAY [3, 8]: 29.5 days
LOG KILL [3, 8]: 3.6
MEDIAN TUMOR WEIGHT [3, 8]: 0 mg
% T/C MASS [3, 9]: 0%
ACTIVITY RATING [3, 9]: ++++ (>2.8)
DRUG DEATHS [3, 9]: 0/5
GROWTH DELAY [3, 9]: 34 days
LOG KILL [3, 9]: 4.1
MEDIAN TUMOR WEIGHT [3, 9]: 0 mg
% T/C MASS [4, 10]: 0%
ACTIVITY RATING [4, 10]: ++++ (>2.8)
DRUG DEATHS [4, 10]: 0/5
GROWTH DELAY [4, 10]: 17 days
LOG KILL [4, 10]: 3.9
MEDIAN TUMOR WEIGHT [4, 10]: 0 mg
% T/C MASS [4, 11]: 0%
ACTIVITY RATING [4, 11]: ++++ (>2.8)
DRUG DEATHS [4, 11]: 0/5
GROWTH DELAY [4, 11]: 16.5 days
LOG KILL [4, 11]: 3.8
MEDIAN TUMOR WEIGHT [4, 11]: 0 mg
% T/C MASS [5, 12]: 3.8%
ACTIVITY RATING [5, 12]: ++ (1.3-1.9)
DRUG DEATHS [5, 12]: 0/5
GROWTH DELAY [5, 12]: 13 days
LOG KILL [5, 12]: 1.7
MEDIAN TUMOR WEIGHT [5, 12]: 63 mg
% T/C MASS [5, 13]: 3.8%
ACTIVITY RATING [5, 13]: ++ (1.3-1.9)
DRUG DEATHS [5, 13]: 0/5
GROWTH DELAY [5, 13]: 13 days
LOG KILL [5, 13]: 1.7
MEDIAN TUMOR WEIGHT [5, 13]: 64 mg
% T/C MASS [5, 14]: 0%
ACTIVITY RATING [5, 14]: +++ (2.0-2.8)
DRUG DEATHS [5, 14]: 0/5
GROWTH DELAY [5, 14]: 15.25 days
LOG KILL [5, 14]: 2.7
MEDIAN TUMOR WEIGHT [5, 14]: 0 mg
toxicity [6]: lower toxicity than other cryptophycins
